Several values for one entry are separate records, joined by “and”; a condition that tells them apart may be missing. Equal values may be shown once. Entries after “also recorded” stand apart in the source; their conditions may differ. Read-outs that look alike come from different tables or passages of the source.
Columns and labels:
[1] = cited from earlier work
[2] = In-vitro percutaneous absorption of retinoic acid and triamcinolone acetonide from two cocoa butter vehicles (Franz cells, 48 h); details: for Penet (Total Penetration) / % Abs (% Absorbed) / Total Penetration / % Absorbed / total absorption: 48 h; for % Abs (% Absorbed) / % Absorbed / total absorption: percent of applied dose
Text: The objective of this study was to measure the permeation of retinoic acid and triamcinolone acetonide through human skin in-vitro from two cocoa butter vehicles.
Two cocoa butter vehicles supplied by Hershey Foods Corporation were utilized: (1) pure cocoa butter and (2) partially hydrolyzed cocoa butter emulsion. Radioactive [11,12-^3 H] [retinoic acid (NET 920, Lot 2930-067, specific activity 1 mCi/ml) and [6,7-^3 H]-triamcinolone acetonide (NET 470, Lot 2904-170, specific activity 1 mCi/ml) were obtained from Dupont-New England Nuclear Corporation, Boston, Mass.
Each of the two cocoa butter vehicles was spiked separately with ^3 H-retinoic acid and ^3 H-Triamcinolone acetonide to give a total of four radioactive formulations for study. This was done by adding 25 μl (containing 25 μCi) of each tracer solution to approximately 1 gram of each vehicle and mixing with the tip of the dispensing micropipette. The pure cocoa butter vehicle was liquified by holding it under warm tap water prior to spiking. This was not done with the partially hydrolyzed cocoa butter emulsion. Neither formulation was used for three days after spiking to allow for diffusional mixing to take place. Final radioactive concentrations of each formulation were: […]
Human trunk skin without obvious signs of disease was used throughout. It was obtained within 24 hours of death, dermatomed to a thickness of approximately 0.25 mm, cryopreserved and sealed in water vapor-impermeableplastic bags. It was stored at -70° C. until the day of use then thawed by placing the bag in 37° C. water.
Skin from a single donor was cut into multiple sections large enough to fit on 0.8 cm^2 Franz cells. The dermal chamber was filled with isotonic saline, pH 7.4, into which a small magnetic stirring bar was placed. The epidermal chamber was left open to the ambient laboratory environment, approximately 22° C. and 40-60% RH. The cells were placed in a diffusion apparatus in which the dermal receptor solution was stirred magnetically at 600 RPM and its temperature maintained at 37° C.
To assure the integrity of each skin section, its permeability to tritiated water was determined before application of the test formulations. Following a brief (0.5-1 hour) equilibration period, 150 μl ^3 H2 O (specific activity 0.3 μCi/ml) was layered across the top of the skin section so that the entire exposed surface was covered. After 5 minutes the aqueous layer was removed and the surface of the skin carefully blotted dry. At t=0.5 hour the saline receptor phase was removed and analyzed for radioactive content by liquid scintillation counting. Skin specimens in which absorption of ^3 H2 O was less than 1.25 μl were considered acceptable.
Subsequently, each test formulation was applied at a target dose of 10 mg (cream) or 10 μl (butter). The cream formulation (partially hydrolyzed cocoa butter emulsion) was applied from the smooth, rounded-tip of a glass rod, the exact amount determined by weighing the rod before and after application. The butter formulation (pure cocoa butter) was first liquified under warm tap water, allowed to cool to room temperature, then applied with a 10 μl positive displacement micropipette prior to resolidifying. At 4, 8, 12, 24, 36 and 48 hours the receptor solution was removed in its entirety, replaced with fresh solution, and a 1 ml aliquot taken and assayed for radioactive content by liquid scintillation counting.
A 1 ml aliquot of each receptor sample containing ^3 H2 O, ^3 H-retinoic acid, or ^3 H-triamcinolone acetonide was placed in a 7 ml glass scintillation vial and gelled by the addition of 5 ml Opti-Fluor (Packard Instrument Co., Meriden, Conn.). These were counted in a Packard Tri-Carb Model 1900CA Liquid scintillation Analyzer equipped with internal standard and automatic quench correction.

[3] = butter (pure cocoa butter), individual skin sections, listed as TRIAMINOLONE ACETONIDE
[4] = butter, average of three donors
[5] = cream (partially hydrolyzed cocoa butter emulsion), individual skin sections, listed as TRIAMINOLONE ACETONIDE

Structure (SMILES): CN(C)C=O [Dimethylformamide]
- side effects ([1]; topical use, in words): a sensation of burning and erythema on the skin

Structure (SMILES): C[S+](C)[O-] [dimethyl sulfoxide]
- side effects ([1]; topical use, in words): a foul taste and body odor, burning and erythema on the skin; a reduction in the relucency of the lens cortex and tissue necrosis

Structure (SMILES): CNC(C)=O [methylacetamide]
- side effects ([1]; in vivo): a sensation of burning and erythema on the skin

Structure (SMILES): CC1(C)O[C@@H]2C[C@H]3[C@@H]4CCC5=CC(=O)C=C[C@]5(C)[C@@]4(F)[C@@H](O)C[C@]3(C)[C@]2(C(=O)CO)O1 [triamcinolone acetonide]
- rate of absorption profile / flux ([2]; both cocoa butter formulations, in words): absorption continues to increase at a slow rate; also recorded: relatively high flux rates
- Penet (Total Penetration) [2, 3]: 524.71 and 252.43 and 268.51 and 390.54 and 1505.05 and 2037.47 and 2111.25 and 1993.70 and 1506.22 and 770.57 and 821.16 and 931.82
- % Abs (% Absorbed) [2, 3]: 5.24% and 2.52% and 2.86% and 3.90% and 15.04% and 20.36% and 21.10% and 19.92% and 15.05% and 7.70% and 8.21% and 9.31%
- Rate of absorption, R1 ([2]; butter (pure cocoa butter), sample R1, mid-t 2 h, individual skin sections, listed as TRIAMINOLONE ACETONIDE): 4.39 ng/cm^2 /hr and 1.60 ng/cm^2 /hr and 4.85 ng/cm^2 /hr and 2.94 ng/cm^2 /hr and 5.03 ng/cm^2 /hr and 5.86 ng/cm^2 /hr and 13.93 ng/cm^2 /hr and 14.30 ng/cm^2 /hr and 10.13 ng/cm^2 /hr and 6.97 ng/cm^2 /hr and 3.85 ng/cm^2 /hr and 4.31 ng/cm^2 /hr
- Rate of absorption, R3 ([2]; butter (pure cocoa butter), sample R3, mid-t 10 h, individual skin sections, listed as TRIAMINOLONE ACETONIDE): 4.10 ng/cm^2 /hr and 1.98 ng/cm^2 /hr and 3.21 ng/cm^2 /hr and 1.85 ng/cm^2 /hr and 39.10 ng/cm^2 /hr and 54.60 ng/cm^2 /hr and 49.52 ng/cm^2 /hr and 41.58 ng/cm^2 /hr and 31.25 ng/cm^2 /hr and 11.42 ng/cm^2 /hr and 13.09 ng/cm^2 /hr and 17.61 ng/cm^2 /hr
- Rate of absorption, R4 ([2]; butter (pure cocoa butter), sample R4, mid-t 18 h, individual skin sections, listed as TRIAMINOLONE ACETONIDE): 10.64 ng/cm^2 /hr and 4.64 ng/cm^2 /hr and 5.65 ng/cm^2 /hr and 6.96 ng/cm^2 /hr and 41.81 ng/cm^2 /hr and 61.91 ng/cm^2 /hr and 60.58 ng/cm^2 /hr and 63.34 ng/cm^2 /hr and 42.50 ng/cm^2 /hr and 16.59 ng/cm^2 /hr and 19.25 ng/cm^2 /hr and 21.60 ng/cm^2 /hr
- Rate of absorption, R5 ([2]; butter (pure cocoa butter), sample R5, mid-t 30 h, individual skin sections, listed as TRIAMINOLONE ACETONIDE): 16.77 ng/cm^2 /hr and 7.47 ng/cm^2 /hr and 7.89 ng/cm^2 /hr and 11.61 ng/cm^2 /hr and 44.77 ng/cm^2 /hr and 55.96 ng/cm^2 /hr and 68.48 ng/cm^2 /hr and 56.67 ng/cm^2 /hr and 44.03 ng/cm^2 /hr and 24.96 ng/cm^2 /hr and 28.20 ng/cm^2 /hr and 30.50 ng/cm^2 /hr
- Rate of absorption, R6 ([2]; butter (pure cocoa butter), sample R6, mid-t 42 h, individual skin sections, listed as TRIAMINOLONE ACETONIDE): 23.72 ng/cm^2 /hr and 12.43 ng/cm^2 /hr and 12.16 ng/cm^2 /hr and 19.97 ng/cm^2 /hr and 48.08 ng/cm^2 /hr and 65.20 ng/cm^2 /hr and 60.71 ng/cm^2 /hr and 62.32 ng/cm^2 /hr and 49.91 ng/cm^2 /hr and 30.50 ng/cm^2 /hr and 30.09 ng/cm^2 /hr and 34.64 ng/cm^2 /hr
- Total Penetration [2, 4]: 1094.29
- Rate of absorption, R1 ([2]; butter, R1, mid-t 2 h, average of three donors): 6.52 ng/cm^2 /hr
- Rate of absorption, R3 ([2]; butter, R3, mid-t 10 h, average of three donors): 22.44 ng/cm^2 /hr
- Rate of absorption, R4 ([2]; butter, R4, mid-t 18 h, average of three donors): 29.62 ng/cm^2 /hr
- Rate of absorption, R5 ([2]; butter, R5, mid-t 30 h, average of three donors): 33.11 ng/cm^2 /hr
- Rate of absorption, R6 ([2]; butter, R6, mid-t 42 h, average of three donors): 37.48 ng/cm^2 /hr
- % Absorbed / total absorption [2, 4]: 10.9%
- % Absorbed / total absorption ([2]; butter, average of three donors, listed as Triamcinalone): 10.93%
- rate of absorption, cream versus butter ([2]; comparison of both formulations, in words): The cream formulation gives a slightly higher rate of absorption than the butter
- Penet (Total Penetration) [2, 5]: 254.48 and 668.59 and 249.45 and 118.36 and 2508.36 and 2312.05 and 2871.31 and 2499.51 and 947.51 and 935.57 and 1068.65 and 1271.22
- % Abs (% Absorbed) [2, 5]: 2.49% and 6.22% and 2.57% and 1.23% and 19.85% and 17.85% and 23.91% and 21.77% and 9.37% and 8.49% and 9.22% and 13.72%
- Rate of absorption, R1 ([2]; cream (partially hydrolyzed cocoa butter emulsion), sample R1, mid-t 2 h, individual skin sections, listed as TRIAMINOLONE ACETONIDE): 3.04 ng/cm^2 /hr and 1.67 ng/cm^2 /hr and 5.26 ng/cm^2 /hr and 1.52 ng/cm^2 /hr and 18.29 ng/cm^2 /hr and 17.50 ng/cm^2 /hr and 18.71 ng/cm^2 /hr and 12.90 ng/cm^2 /hr and 4.30 ng/cm^2 /hr and 2.33 ng/cm^2 /hr and 15.97 ng/cm^2 /hr and 3.83 ng/cm^2 /hr
- Rate of absorption, R3 ([2]; cream (partially hydrolyzed cocoa butter emulsion), sample R3, mid-t 10 h, individual skin sections, listed as TRIAMINOLONE ACETONIDE): 3.36 ng/cm^2 /hr and 3.23 ng/cm^2 /hr and 5.64 ng/cm^2 /hr and 0.96 ng/cm^2 /hr and 59.17 ng/cm^2 /hr and 56.60 ng/cm^2 /hr and 68.40 ng/cm^2 /hr and 55.15 ng/cm^2 /hr and 21.00 ng/cm^2 /hr and 18.75 ng/cm^2 /hr and 20.37 ng/cm^2 /hr and 22.71 ng/cm^2 /hr
- Rate of absorption, R4 ([2]; cream (partially hydrolyzed cocoa butter emulsion), sample R4, mid-t 18 h, individual skin sections, listed as TRIAMINOLONE ACETONIDE): 5.74 ng/cm^2 /hr and 12.44 ng/cm^2 /hr and 6.13 ng/cm^2 /hr and 2.07 ng/cm^2 /hr and 63.18 ng/cm^2 /hr and 60.43 ng/cm^2 /hr and 79.96 ng/cm^2 /hr and 72.84 ng/cm^2 /hr and 26.40 ng/cm^2 /hr and 25.54 ng/cm^2 /hr and 27.04 ng/cm^2 /hr and 31.56 ng/cm^2 /hr
- Rate of absorption, R5 ([2]; cream (partially hydrolyzed cocoa butter emulsion), sample R5, mid-t 30 h, individual skin sections, listed as TRIAMINOLONE ACETONIDE): 7.24 ng/cm^2 /hr and 17.67 ng/cm^2 /hr and 6.59 ng/cm^2 /hr and 3.75 ng/cm^2 /hr and 73.13 ng/cm^2 /hr and 69.96 ng/cm^2 /hr and 81.15 ng/cm^2 /hr and 70.51 ng/cm^2 /hr and 30.37 ng/cm^2 /hr and 30.85 ng/cm^2 /hr and 35.59 ng/cm^2 /hr and 41.22 ng/cm^2 /hr
- Rate of absorption, R6 ([2]; cream (partially hydrolyzed cocoa butter emulsion), sample R6, mid-t 42 h, individual skin sections, listed as TRIAMINOLONE ACETONIDE): 10.49 ng/cm^2 /hr and 37.33 ng/cm^2 /hr and 7.93 ng/cm^2 /hr and 5.35 ng/cm^2 /hr and 83.06 ng/cm^2 /hr and 70.37 ng/cm^2 /hr and 91.88 ng/cm^2 /hr and 81.89 ng/cm^2 /hr and 28.80 ng/cm^2 /hr and 30.03 ng/cm^2 /hr and 32.01 ng/cm^2 /hr and 46.16 ng/cm^2 /hr
- Total Penetration ([2]; cream, average of three donors): 1308.76
- % Absorbed / total absorption ([2]; cream, average of three donors): 11.4%
- % Absorbed / total absorption ([2]; cream, average of three donors, listed as Triamcinalone): 11.39%
- difference between partially hydrolyzed cocoa butter emulsion and pure cocoa butter as delivery vehicle ([2]; in words): no appreciable difference
- average absorption ([2]; with cocoa butter and partially hydrolyzed cocoa butter emulsion (both vehicles)): about 11%
